# Experiments:
# [1] = system: Ear Edema Caused by Xylene; assay: Inhibition of Ear Edema Caused by Xylene (II), Table 9; assay type: in vivo, CF-1 mice; conditions: i.p., 2 h
# Experimental: Inhibition of Ear Edema Caused by Xylene (II)
# (§1) CF-1 mice, 25-30 g body weight, six animals per group, were used. The requisite amount of the test compound was dissolved is dimethyl sulfoxide or 0.5% methylcellulose and 100 μL of the solution was injected intraperitoneally 30 minutes prior to the administration the irritant. The irritant xylene was applied to the surface of the ear, 20 μL to the upper surface and 20 μL to the lower surface, After two hours, the thickness of the ear was measured to 0.01 mm by a micrometer with the loose drag positioned at the lateral-most edge of the mid-point of the pinna. Data were calculated as the percent inhibition by the test compound of increased ear thickness compared to control animals receiving only the irritant.
# [2] = system: Ear Edema Caused by Arachidonic Acid; assay: Inhibition of Ear Edema Caused by Arachidonic Acid (II), Table 8; assay type: in vivo, CF-1 mice; conditions: i.p., sixty minutes
# Experimental: Inhibition of Ear Edema Caused by Arachidonic Acid (II)
# as §1, with “of 100 mg/kg of arachidponic acid. A solution of this irritant, b 100 mg/mL in ethanol,” for “the irritant. The irritant xylene”, “5” for “20”, “surface.” for “surface,”, “sixty minutes,” for “two hours,”, “inhibityion” for “inhibition”, “recieveing” for “receiving”
# [3] = system: Ear Edema Caused by Oxazolone; assay: Inhibition of Ear Edema Caused by Oxazolone (II), Table 10; assay type: in vivo, CF-1 mice; conditions: i.p., 24 h
# Experimental: Inhibition of Ear Edema Caused by Oxazolone (II)
# CF-1 mice, 25-30 g body weight, five to six animals per group were used. The mice were sensitized to the irritant two weeks prior to the test by dribbling 100 μL of a 3% solution of oxazolone in acetone onto the abdominal skin of the animal. Test compounds were administered intraperitoneally as follows. […] The irritant, 3% oxazolone in acetone, was added to the surface of the ear, 5 μL added to the upper surface and 5 μL added to the lower surface. After twenty four hours, the thickness of the ear was measured to 0.01 mm by a micrometer with loose drag, positioned at the lateral-most edge of the mid-point of the pinna. Data were calculated as the inhibition of increased ear thickness compared to control animals' receiving only the irritant.
# [4] = system: Ear Edema Caused By Tetradecanoylphorbol Acetate; assay: Inhibition of Ear Edema Caused by Tetradecanoylphorbol Acetate (II), Table 7; assay type: in vivo, CF-1 Mice; conditions: i.p., 3 h
# Experimental: Inhibition of Ear Edema Caused by Tetradecanoylphorbol Acetate (II)
# CF-1 Mice, 25-30 g body weight, six animals per group were used. Test compounds were administered intraperitoneally or topically as follows. For intraperitoneal administration, the test compound was dissolved in dimethyl sulfoxide or 0.5% methylcellulose and 100 microliters was injected 30 minutes prior to irritant (100 mg/kg, i.p.). […] A solution of the irritant, tetradecanoylphorbol acetate, 200 μg/mL, was added to the surface of the ear, 5 μL to the upper surface and 5 μL to the lower surface. After three hours, the thickness of the ear was measured to 0.01 mm by a micrometer with loose drag, positioned at the lateral-most edge of the mid-point of the pinna. Data were calculated as the inhibition of increased ear thickness compared to control animals receiving only the irritant.
SMILES,% Inhibition ([1]; 10 mg/kg),% Inhibition ([1]; 30 mg/kg),% Inhibition ([1]; 100 mg/kg),% Inhibition Intraperitoneal ([2]; 10 mg/kg),% Inhibition Intraperitoneal ([2]; 30 mg/kg),% Inhibition Intraperitoneal ([2]; 100 mg/kg),% Inhibition Intraperitoneal ([3]; 10 mg/kg),% Inhibition Intraperitoneal ([3]; 30 mg/kg),% Inhibition Intraperitoneal ([3]; 100 mg/kg),% Inhibition Intraperitoneal ([4]; 10 mg/kg),% Inhibition Intraperitoneal ([4]; 30 mg/kg),% Inhibition Intraperitoneal ([4]; 100 mg/kg)
"Cc1cccc2c1-c1ccccc1C2COC(=O)N[C@@H](CC(C)C)C(=O)O (stereo partly drawn) [NPC 15325, N-{[9H-(4-Methylfluoren-9-yl)methoxy]carbonyl}-L-leucine]",16%,25%,78%,52%,63%,100%,22%,24%,49%,36%,11%,82%
"CCOC(=O)[C@H](CC(C)C)NC(=O)OCC1c2ccccc2-c2ccccc21 [NPC 15327, N-[(9H-Fluoren-9-ylmethoxy)carbonyl]-L-leucine ethyl ester]",18%,8%,19%,,,,,,,37%,64%,77%
"CC(C)C[C@H](NC(=O)OCC1c2ccccc2-c2ccccc21)C(=O)OCc1ccccc1 [NPC 15328, N-[(9H-Fluoren-9-ylmethoxy)carbonyl]-L-leucine benzyl ester]",19%,29%,13%,,,,,,,49%,47%,62%
"CCCC[C@H](NC(=O)CCC1c2ccccc2-c2ccccc21)C(=O)O [NPC 15894, N-[3-(9H-Fluoren-9-yl)propionyl]-L-norleucine, quarter hydrate]",0%,0%,34%,22%,40%,60%,29%,14%,35%,11%,0%,68%
"O=C(CCC1c2ccccc2-c2ccccc21)N[C@@H](CCc1ccccc1)C(=O)O [NPC 15895, N-[3-(9H-Fluoren-9-yl)propionyl]-L-Homophenylalanine, quarter hydrate]",0%,0%,51%,14%,26%,52%,4%,12%,71%,68%,71%,67%
"O=C(CCC1c2ccccc2-c2ccccc21)N[C@@H](Cc1ccccc1)C(=O)O [NPC 15896, N-[3-(9H-Fluoren-9-yl)propionyl]-L-Phenylalanine]",28%,24%,21%,16%,24%,72%,,,,0%,0%,84%
"Cc1cccc2c1-c1ccccc1C2COC(=O)N[C@H](C(=O)O)C(C)(C)C (stereo partly drawn) [NPC 15904, N-{[9H-(4-Methylfluoren-9-yl)methoxy]carbonyl}-L-tert-leucine]",0%,10%,68%,19%,54%,79%,21%,54%,79%,16%,0%,43%
"CCCC[C@H](NC(=O)OCC1c2ccccc2-c2cccc(C)c21)C(=O)O (stereo partly drawn) [NPC 15951, N-{[9H-(1-Methylfluoren-9-yl)methoxy]carbonyl}-L-norleucine]",40%,62%,62%,11%,18%,56%,33%,23%,49%,41%,39%,70%
"Cc1cccc2c1C(COC(=O)N[C@H](C(=O)O)C(C)(C)C)c1ccccc1-2 (stereo partly drawn) [NPC 15952, N-{[9H-(1-Methylfluoren-9-yl)methoxy]carbonyl}-L-tert-leucine]",29%,39%,43%,43%,47%,50%,21%,24%,72%,27%,75%,67%
"Cc1cccc2c1-c1ccccc1C2COC(=O)N[C@@H](CCc1ccccc1)C(=O)O (stereo partly drawn) [NPC 15961, N-{[9H-(4-Methylfluoren-9-yl)methoxy]carbonyl}-L-homophenylalanine]",41%,41%,57%,,,,29%,23%,92%,,,
"COc1ccc2c(c1)C(CCC(=O)N[C@@H](CC(C)C)C(=O)O)c1ccccc1-2 (stereo partly drawn) [NPC 15968, N-{9H-[3-(2-Methoxyfluoren-9-yl)propionyl]}-L-leucine]",23%,62%,57%,,,,24%,24%,66%,,,
"Cc1cccc2c1C(CCC(=O)N[C@@H](CCc1ccccc1)C(=O)O)c1ccccc1-2 (stereo partly drawn) [NPC 15974, N-{9H-[3-(1-Methylfluoren-9-yl)propionyl]}-L-homophenylalanine]",48%,57%,59%,,,,0%,23%,48%,,,
"Cc1cccc2c1-c1ccccc1C2CCC(=O)N[C@@H](CC(C)C)C(=O)O (stereo partly drawn) [NPC 15975, N-{9H-[3-(4-Methylfluoren-9-yl)propionyl]}-L-leucine quarter hydrate]",51%,22%,49%,,,,36%,19%,73%,,,
"CCCC[C@H](NC(=O)CCC1c2ccccc2-c2cccc(C)c21)C(=O)O (stereo partly drawn) [NPC 15976, N-[9H-[3-(1-Methylfluoren-9-yl)propionyl]}-L-norleucine, quarter hydrate]",59%,33%,62%,,,,10%,8%,73%,,,

# — patent US5079260A, “Method for treating inflammation and compounds and compositions suitable for use therein” (Nova Pharmaceutical Corporation, priority 1990, dated 1992)
